What was measured:
[1] = test system: extracellular 5-HT in the NAc; test: Fiber photometry with GRAB5-HT sensor in the NAc of freely moving mice; format: in vivo; conditions: for relative GRAB5-HT fluorescence at peak versus saline: t = 700-900 s post injection, drug alone, D-FEN 10, S-4-MC 5, S-4-TFMMC 10 mg kg-1 intraperitoneal
Method: All in vivo experiments were performed in adult mice (>6 weeks old). For the photometry and microdialysis experiments, which were carried out in Florida, male C57BL/6J mice from The Jackson Laboratory (Bar Harbor, ME, USA) were group-housed in polycarbonate cages (GM500, Tecniplast, Buguggiate, Italy) with lights on from 7 a.m. to 7 p.m. Food and water were provided ad libitum. Photometry and microdialysis experiments were performed in accordance with a protocol approved by the Institutional Animal Care and Use Committee at Florida Atlantic University. For the behavioral experiments, which were carried out in Vienna, C57BL/6N mice from Charles River (Sulzfeld, Germany) were group-housed in polycarbonate cages with lights on from 7 a.m. to 7 p.m. Food and water were provided ad libitum. Behavioral experiments were performed in accordance with a protocol approved by the Austrian national ethical committee on animal care and use (Bundesministerium für Wissenschaft und Forschung: BMWFW-66.009/0016-WF/V/3b/2015). All animal procedures were conducted in agreement with the ARRIVE guidelines and the U.K. Animal (Scientific Procedures) Act, 1986, and associated guidelines, EU Directive 2010/63/EU for animal experiments. Mice were given at least 1 week to acclimate before being used in any experiments.
Mice were anesthetized with isoflurane (5% induction, 2% maintenance) and placed into a stereotaxic frame (Kopf Instruments, Tujunga, CA, USA) oriented in the flat skull position. Ophthalmic ointment was applied to prevent drying of the eyes. Ketoprofen (10 mg kg^−1) was administered subcutaneously (s.c.), whereas bupivacaine and lidocaine were administered locally (s.c.; 100 µl of sterile saline containing 0.05% bupivacaine and 0.2% lidocaine) to the surgical site atop the head. A midline incision was made through the skin on the dorsal surface of the head to expose the skull. Fascia was removed, coordinates for the NAc were determined relative to bregma: anterior/posterior = 1.54 mm; medial/lateral = 0.7 mm; dorsal/ventral = −4.1 mm. A 1 mm burr hole was drilled through the skull. […] For the mice used for fiber photometry, 4*10^12 genome copies of AAV9-hSyn-5-HT2h or 10^10 genome copies of AAV-hSyn-DA2m were delivered into the NAc at an infusion rate of 100 nl min^−1 (total volume of 1 µl) using a 34-gauge needle attached to a 10 µl Nanofil microsyringe (Hamilton, Reno, NV, USA), as previously described. Following injection of the virus, an optical fiber was lowered through the burr hole and secured with glass ionomer cement. Three 1.6 mm screws (00-96X1/16 39052, Plastics One Inc., Roanoke, VA, USA) were affixed to the skull to support a cement stage that was created to secure the implanted guide cannulae or optical fiber. Mice were singly housed following surgery and allowed 6 days of recovery for the microdialysis experiments or 21 days for the photometry experiments. Food and water were available ad libitum.
To monitor light emitted from the G-protein coupled receptor-activation-based 5-HT (GRAB5-HT) and DA (GRABDA) sensors, fiber photometry was performed as described. Briefly, a light emitting diode (465 nm) (CLED_465, Doric Lenses, Quebec, QC, Canada), reflected through a dichroic mirror, was coupled to an optical fiber (200 µm core/225 cladding diameter; Thorlabs, Newton, NJ, USA) that was glued to a metal ferrule (Doric Lenses, Quebec, QC, Canada) and implanted into the NAc as described above. Emitted, band-pass filtered light (500–550 nm, FMC6, Doric Lenses, Quebec,QC, Canada) was detected with a photodetector (Newport Femtowatt silicone PIN; New Focus, San Jose, CA, USA). Data were recorded using a RZ5P lock-in amplifier (Tucker-Davis Technologies, Alachua, FL, USA) controlled with Synapse software. Sinusoidal excitation was delivered at 210 Hz by an LED driver Doric Lenses, LEDD_4) at low power mode. A demodulated signal was low-pass filtered at 6 Hz and digitized at 1017 Hz. […]

5-HT2A receptor = biological target: T1, 5-HT2A receptor (Homo sapiens, UniProt P28223); test: 5-HT receptor-dependent induction of GCamP6s fluorescence in HEK293 cells; format: cell-based; conditions: GCamP6s fluorescence normalized to 1 µM 5-HT
T1 construct: expressed in transfected cells
Method: All cloning steps were performed using NEB Builder (New England Biolabs, Frankfurt/Main, Germany). GCamP6s was cloned into pcDNA3.1. GCaMP is a genetically encoded calcium indicator which allows measurement of calcium flux. To allow for visual inspection of co-expressed 5-HT2 receptors, the enhanced cyan fluorescent protein (eCFP) was added to the C-Terminus of the 5-HT2 receptors. The resulting constructs were then cloned into pcDNA4-TO to allow tetracycline dependent expression.
In a first step, HEK293 cells were transfected with pcDNA6-TR and cells stably expressing the Tet-repressor were selected by the addition of blasticidin (60 µg ml^−1). In a second step, one of the resulting clones was transfected with one of the 5-HT2 receptor constructs and stable clones were selected by the addition of zeocin (150 µg ml^−1). Suitable clones were selected by visual inspection of the eCFP signal at the plasma membrane. In a last step, the eCFP positive clones were transfected with GCamp6s, and stable clones were selected using G418 (250 µg ml^−1). The resulting clones were sorted via FACS to isolate GCaMP6s (green fluorescent protein) positive cells and the resulting polyclonal cell lines were used for further experiments. Cells were maintained in DMEM supplemented with 2% fetal bovine serum, blasticidin, zeocin, and G418 at concentrations described above. To induce receptor expression, tetracycline (1 µg ml^−1) was added to the medium 18–24 h prior to the experiment.
Imaging experiments were performed at room temperature (22–27 °C). Medium was exchanged for KHB 10 min prior to the experiment and cells were continuously superfused with KHB, using a fast superfusion device (DAD12, ALA Scientific, Farmingdale, NY, USA). Test drugs (0.1, 1, 10 µM) or 5-HT (1 µM) were applied for 30 s, interleaved by KHB superfusion for 300 s. GCamp6s fluorescence was monitored using an inverted microscope (Nikon Eclipse Ti2) equipped with a Nikon ×40 WI (NA 1.25) objective (Nikon Europe, Amsterdam, Netherlands). Fluorescence was excited using a 470 nm LED (Coolled pe4000, Coolled, Andover, NY, USA). Excitation light was filtered through a 480/20 nm bandpass filter and reflected via 505 nm dichroic mirror. Emission light was filtered using a 535/25 nm optical bandpass filter (Nikon Europe, Amsterdam, Netherlands). Images were taken at a frequency of 1 image s^−1 with an exposure time of 20–30 ms using an sCMOS camera (Andor Zyla 5.5, Oxford Instruments, Abingdon, UK) and NIS-Elements 5.2 software (Laboratory Imaging, Praha, Czech Republic).
Image Stacks were background corrected by subtracting the mean intensity of […]. For each image the mean fluorescence intensity of 1–5 ROIs consisting of several clustered cells was measured. The change in intensity of the GCamP6s fluorescence was calculated as the intensity at the end of test drug application minus the intensity before substance application, normalized to the increase of fluorescence evoked by the application of 1 µM 5-HT. Data represent 1–5 fields of view from three independent experiments

T1 sequence (P28223 whole entry): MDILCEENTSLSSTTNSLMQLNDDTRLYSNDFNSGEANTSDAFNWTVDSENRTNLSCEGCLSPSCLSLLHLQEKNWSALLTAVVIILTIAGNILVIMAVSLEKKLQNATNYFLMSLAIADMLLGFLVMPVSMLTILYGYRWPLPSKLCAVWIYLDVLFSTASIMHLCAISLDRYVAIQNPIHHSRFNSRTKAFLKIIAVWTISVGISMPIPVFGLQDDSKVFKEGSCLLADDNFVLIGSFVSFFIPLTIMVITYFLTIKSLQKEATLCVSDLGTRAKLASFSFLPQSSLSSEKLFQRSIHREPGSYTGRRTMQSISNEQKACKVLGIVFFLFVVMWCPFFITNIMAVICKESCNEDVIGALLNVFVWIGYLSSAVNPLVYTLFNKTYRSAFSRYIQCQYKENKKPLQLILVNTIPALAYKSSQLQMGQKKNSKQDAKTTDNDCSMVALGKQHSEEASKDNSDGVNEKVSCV

SMILES	extracellular 5-HT in the NAc (GRAB5-HT fluorescence) ([1]; 10 mg kg-1 intraperitoneal)	extracellular 5-HT in the NAc (GRAB5-HT fluorescence) with co-administered fluoxetine ([1]; 10 mg kg-1 plus fluoxetine 10 mg kg-1 intraperitoneal)	relative GRAB5-HT fluorescence at peak versus saline [1]	activation of 5-HT2A receptor (5-HT2A receptor; 1 µM)	extracellular 5-HT in the NAc (GRAB5-HT fluorescence) ([1]; 5 mg kg-1 intraperitoneal)	5-HT sensor response on day 1 versus day 2 ([1]; 5 mg kg-1 intraperitoneal, two doses 24 h apart)	extracellular 5-HT in the NAc (GRAB5-HT fluorescence) with co-administered fluoxetine ([1]; 5 mg kg-1 plus fluoxetine 10 mg kg-1 intraperitoneal)	activation of 5-HT2A receptor (5-HT2A receptor; 10 µM)
CN[C@@H](C)C(=O)c1ccc(C(F)(F)F)cc1 [S-4-TFMMC, 4-trifluoromethyl-N-methylcathinone]	elevated extracellular 5-HT in the NAc in a time-dependent manner	this effect could be prevented by fluoxetine	Significant effects	neither test drug activated	–	–	–	–
Cc1ccc(C(=O)[C@H](C)N)cc1 [S-4-MC, 4-methylcathinone]	–	–	Significant effects	neither test drug activated	elevated extracellular 5-HT in the NAc in a time-dependent manner	no significant difference	this effect could be prevented by fluoxetine	displayed activity

— article PMC9645344, “Serotonin-releasing agents with reduced off-target effects” (Molecular Psychiatry, 2022)
